Reference: patent US8518953B2, “Aminopyrimidines useful as inhibitors of protein kinases” (Vertex Pharmaceuticals Incorporated, priority 2007, dated 2013)

Tests used:
[1] = biological target: T1, GSK3α TYR 279 (Homo sapiens, UniProt P49840); assay: GSK-3α p-TYR Inhibition Assay (western blotting of Jurkat cells); type: cell-based; settings: western blot, read-out: GSK3a pTYR 279: IC50
T1 construct: western blotting of Jurkat cells dosed with the compounds; endogenous in cells; host or cells: Jurkat cells
Description: (§1) Compounds are screened for their ability to inhibit the phosphorylation of tyrosine (TYR) residues through the use of western blotting of Jurkat cells dosed with the compounds. The phosphorylation of the specific TYR residues tested are GSK3α TYR 279 and GSK3β TYR 216.
(§2) Jurkat cells are seeded at a density of 2×10^5 cells/well in a 12 well dish in starvation media (RPMI+1% FBS+P/S). Following starvation for 16 hours, the compound is dosed into each well at a final DMSO concentration of 0.3% and cells are incubated o/n at 37° C. 5% CO2. The next day, cells are spun down at 1500 rpm, washed with PBS, and lysed in 100 uL Laemli sample buffer with β-mercaptoethanol.
(§3) 15 microliters (uL) of cell lysates are loaded onto a 10% tris-glycine gel and run at 120 v for 2 hours or until dye front runs off of the gel. The protein is then transferred onto a PVDF membrane at 100 v for 60 min. PBST (PBS containing 0.1% Tween 20, such as 1 ml Tween per 1 L of PBS) is then made up and used for all washes and antibody incubations. The blot is blocked in 5% nonfat milk PBST for one hour.
(§4) The primary antibody (GSK-3α/β pTYR 279/216 at 1:1000 dilution Upstate cat#05-413) is then added in […] PBST overnight at 4° C. with gentle rocking. The blot is then washed in PBST for 5 min. This is then repeated 4 times. […]

[2] = tested on: β-catenin dependent TCF/LEF transcriptional activity; assay: β-Catenin Stabilization Protocol (β-lactamase reporter assay in Jurkat cells); type: cell-based; settings: Homo sapiens, 460/530 ratio, read-out: Beta Catenin IC50
Excerpt: GSK-3 phosphorylation of β-catenin targets it to the proteosome for degradation. Inhibition of GSK-3 results in accumulation of β-catenin in the cytosol of cells which through interaction with the transcription factor TCF/LEF translocates to the nucleus and drives the transcription of Wnt-dependent genes. The assay is designed to determine the level of β-catenin dependent TCF/LEF transcriptional activity in a quantitative manner through the use of a β-lactamase reporter assay in Jurkat cells dosed with a compound.
Jurkat β-catenin cells are starved overnight in assay media (1% FBS, 1× Penstrep, RPMI) in the flask. The next day Jurkat β-catenin cells are seeded in 96 well flat bottom plates at a density of 50,000 cells/well in assay media in a volume of 100 ul. The compound is added to the well at a final DMSO concentration of 0.75% and incubated at 37° C. o/n. The next day, 20 uL of 6×CCF4 dye is added to the wells and incubated at room temperature for 1-2 hours. Plates are read on the Cytofluor 4000 series multiwell plate reader and the 460/530 ratio is determined.

[3] = biological target: T2, GSK3β TYR 216 (Homo sapiens, UniProt P49841); assay: GSK3β p-TYR Inhibition Assay (western blotting of Jurkat cells); type: cell-based; settings: western blot, read-out: GSK3b pTYR 216: IC50
T2 construct: western blotting of Jurkat cells dosed with the compounds; endogenous in cells; host or cells: Jurkat cells
Description: as §1, §2, §3, §4

[4] = biological target: T3, GSK-3β (AA 1-420) (Homo sapiens, UniProt P49841); assay: GSK-3 Inhibition Assay (standard coupled enzyme system); type: biochemical; settings: 20 μM ATP, 300 μM peptide, 20 nM GSK-3β, 30° C.
T3 construct: GSK-3β (AA 1-420)
Description: Compounds of the present invention were screened for their ability to inhibit GSK-3β (AA 1-420) activity using a standard coupled enzyme system (Fox et al., Protein Sci. 1998, 7, 2249). Reactions were carried out in a solution containing 100 mM HEPES (pH 7.5), 10 mM MgCl2, 25 mM NaCl, 300 μM NADH, 1 mM DTT and 1.5% DMSO. Final substrate concentrations in the assay were 20 μM ATP (Sigma Chemicals, St Louis, Mo.) and 300 μM peptide (American Peptide, Sunnyvale, Calif.). Reactions were carried out at 30° C. and 20 nM GSK-3β. Final concentrations of the components of the coupled enzyme system were 2.5 mM phosphoenolpyruvate, 300 μM NADH, 30 μg/ml pyruvate kinase and 10 μg/ml lactate dehydrogenase.
An assay stock buffer solution was prepared containing all of the reagents listed above with the exception of ATP and the test compound of the present invention. The assay stock buffer solution (175 μl) was incubated in a 96 well plate with 5 μl of the test compound of the present invention at final concentrations spanning 0.002 μM to 30 μM at 30° C. for 10 min. […] Rates of reaction were obtained using a Molecular Devices Spectramax plate reader (Sunnyvale, Calif.) over 10 min at 30° C. The Ki values were determined from the rate data as a function of inhibitor concentration.

[5] = tested on: rat brains after transient middle cerebral artery occlusion; settings: rat brains after transient MCAO; cited from earlier work

T3 sequence (P49841 whole entry, species assumed, the tested form may be a part): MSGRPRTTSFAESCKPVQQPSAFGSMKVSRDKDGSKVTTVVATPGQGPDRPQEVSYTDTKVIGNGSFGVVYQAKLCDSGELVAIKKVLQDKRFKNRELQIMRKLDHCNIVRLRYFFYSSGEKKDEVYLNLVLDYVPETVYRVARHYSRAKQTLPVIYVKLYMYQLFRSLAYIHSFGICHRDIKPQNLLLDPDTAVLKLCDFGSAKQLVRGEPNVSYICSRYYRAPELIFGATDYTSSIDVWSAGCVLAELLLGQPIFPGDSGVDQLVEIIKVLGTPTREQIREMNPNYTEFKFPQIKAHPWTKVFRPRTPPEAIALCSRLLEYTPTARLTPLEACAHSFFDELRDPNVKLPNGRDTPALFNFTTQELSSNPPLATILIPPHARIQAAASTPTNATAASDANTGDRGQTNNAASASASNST
T2 sequence (P49841 whole entry): as the sequence (P49841 whole entry, species assumed, the tested form may be a part) above
T1 sequence (P49840 whole entry): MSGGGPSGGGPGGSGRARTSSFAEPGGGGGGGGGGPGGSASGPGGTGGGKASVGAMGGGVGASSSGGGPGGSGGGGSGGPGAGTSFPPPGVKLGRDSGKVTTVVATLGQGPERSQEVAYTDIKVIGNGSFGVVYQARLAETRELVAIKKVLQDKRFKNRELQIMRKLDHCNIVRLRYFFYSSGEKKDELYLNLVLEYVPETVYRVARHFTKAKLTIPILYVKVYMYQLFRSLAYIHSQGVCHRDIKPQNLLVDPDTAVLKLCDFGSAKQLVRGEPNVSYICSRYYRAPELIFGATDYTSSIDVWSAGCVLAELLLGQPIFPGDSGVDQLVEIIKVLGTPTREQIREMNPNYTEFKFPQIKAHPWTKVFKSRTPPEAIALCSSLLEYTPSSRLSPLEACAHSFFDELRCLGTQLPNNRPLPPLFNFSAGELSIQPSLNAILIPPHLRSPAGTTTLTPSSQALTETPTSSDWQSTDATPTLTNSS

Row | IC50 [1] [µM] | IC50 [2] [µM] | IC50 [3] [µM] | Ki [4] [µM] | Compound | infarct size [5]
1 | 0.002 | 0.94 | 0.03 | < 0.005 | CCc1c(C)nc(-c2ccccc2Cl)nc1Nc1n[nH]c2ncc(F)cc12 [Compound I-2] | –
2 | – | – | – | – | IGF-1: insulin growth factor-1, a known GSK-3 inhibitor | reduced infarct size
